Legend:
Cyperus = assay: Pre-emergence test; assay type: in vivo; settings: rated after 3 weeks, application rate not stated, 0%=no effect, 100%=total destruction
Procedure: (§1) Solvent: 5 parts by weight of acetone
(§2) Emulsifier: 1 part by weight of alkylaryl polyglycol ether
(§3) To produce a suitable preparation of active compound, 1 part by weight of active compound is mixed with the stated amount of solvent, the stated amount of emulsifier is added and the concentrate is diluted with water to the desired concentration.
(§4) Seeds of the test plants are sown in normal soil. After about 24 hours, the soil is sprayed with the preparation of active compound in such a way as to apply the particular amounts of active compound desired per unit area. The concentration of the spray liquor is chosen so that the particular amounts of active compound desired are applied in 1000 l of water/ha.
(§5) After 3 weeks, the degree of damage to plants is rated in % damage in comparison to the development of the untreated control.
(§6) 0%=no effect (like untreated control)

Sinapis [1] = assay: Pre-emergence test; assay type: in vivo; settings: rated after 3 weeks, application rate not stated
Procedure: as §1, §2, §3, §4, §5, §6

Abutilon = assay: Postemergence test; assay type: in vivo; settings: plants 5-15 cm sprayed, rated after 3 weeks, application rate not stated
Procedure: as §1, §2
(§7) To produce an effective preparation of active compound, 1 part by weight of active compound is mixed with the stated amount of solvent, the stated amount of emulsifier is added and the concentrate is diluted with water to the desired concentration.
as §4, with “Test plants which have a height” for “Seeds”, “5-15 cm” for “the test plants”, “are” for “are sown in normal soil. After about 24 hours, the soil is”
(§8) After 3 weeks, the degree of damage to the plants is rated in % damage in comparison to the development of the untreated control.
as §6

Ipomoea = assay: Postemergence test; assay type: in vivo; settings: plants 5-15 cm sprayed, rated after 3 weeks, application rate not stated
Procedure: as §1, §2, §7
as §4, with “Test plants which have a height” for “Seeds”, “5-15 cm” for “the test plants”, “are” for “are sown in normal soil. After about 24 hours, the soil is”
as §8, §6

Matricaria = assay: Postemergence test; assay type: in vivo; settings: plants 5-15 cm sprayed, rated after 3 weeks, application rate not stated
Procedure: as §1, §2, §7
as §4, with “Test plants which have a height” for “Seeds”, “5-15 cm” for “the test plants”, “are” for “are sown in normal soil. After about 24 hours, the soil is”
as §8, §6

Sinapis [2] = assay: Postemergence test; assay type: in vivo; settings: plants 5-15 cm sprayed, rated after 3 weeks, application rate not stated
Procedure: as §1, §2, §7
as §4, with “Test plants which have a height” for “Seeds”, “5-15 cm” for “the test plants”, “are” for “are sown in normal soil. After about 24 hours, the soil is”
as §8, §6

Solanum = assay: Postemergence test; assay type: in vivo; settings: plants 5-15 cm sprayed, rated after 3 weeks, application rate not stated
Procedure: as §1, §2, §7
as §4, with “Test plants which have a height” for “Seeds”, “5-15 cm” for “the test plants”, “are” for “are sown in normal soil. After about 24 hours, the soil is”
as §8, §6

datura = assay: Postemergence test; assay type: in vivo; settings: plants 5-15 cm sprayed, rated after 3 weeks, application rate not stated
Procedure: as §1, §2, §7
as §4, with “Test plants which have a height” for “Seeds”, “5-15 cm” for “the test plants”, “are” for “are sown in normal soil. After about 24 hours, the soil is”
as §8, §6

polygonum = assay: Postemergence test; assay type: in vivo; settings: plants 5-15 cm sprayed, rated after 3 weeks, application rate not stated
Procedure: as §1, §2, §7
as §4, with “Test plants which have a height” for “Seeds”, “5-15 cm” for “the test plants”, “are” for “are sown in normal soil. After about 24 hours, the soil is”
as §8, §6

melting point [°C] | SMILES | degree of damage to plants, % damage vs untreated control (Cyperus) [%] | degree of damage to plants, % damage vs untreated control (Sinapis [1]) [%] | degree of damage to the plants, % damage vs untreated control (Abutilon) [%] | degree of damage to the plants, % damage vs untreated control (Ipomoea) [%] | degree of damage to the plants, % damage vs untreated control (Matricaria) [%] | degree of damage to the plants, % damage vs untreated control (Sinapis [2]) [%] | degree of damage to the plants, % damage vs untreated control (Solanum) [%] | degree of damage to the plants, % damage vs untreated control (datura) [%] | degree of damage to the plants, % damage vs untreated control (polygonum) [%]
217 | O=c1cc(C(F)(F)F)[nH]c(=O)n1-c1cc(F)c(C(F)(F)F)cc1F [Example 1, 1-(2,5-difluoro4-trifluoromethyl-phenyl)-3,6-dihydro-2,6-dioxo-4-trifluoromethyl-1(2H)-pyrimidine] | – | – | – | – | – | – | – | – | –
110 | Cn1c(C(F)(F)F)cc(=O)n(-c2cc(F)c(C(F)(F)F)cc2F)c1=O [Example 2, 1-(2,5-difluoro-4-trifluoromethyl-phenyl)-3,6-dihydro-2,6-dioxo-3-methyl-4-trifluoromethyl-1 (2H)-pyrimidine] | 80 | 100 | 100 | 100 | 100 | 100 | 100 | 100 | 95

The next lines start with the compound.

SMILES | melting point [°C] | degree of damage to plants, % damage vs untreated control (Cyperus) [%] | degree of damage to plants, % damage vs untreated control (Sinapis [1]) [%] | degree of damage to the plants, % damage vs untreated control (Abutilon) [%] | degree of damage to the plants, % damage vs untreated control (Ipomoea) [%] | degree of damage to the plants, % damage vs untreated control (Matricaria) [%] | degree of damage to the plants, % damage vs untreated control (Sinapis [2]) [%] | degree of damage to the plants, % damage vs untreated control (Solanum) [%] | degree of damage to the plants, % damage vs untreated control (datura) [%] | degree of damage to the plants, % damage vs untreated control (polygonum) [%]
Nn1c(C(F)(F)F)cc(=O)n(-c2cc(F)c(C(F)(F)F)cc2F)c1=O [Example 3, 3-amino-1-(2,5-difluoro-4-trifluoromethyl-phenyl)-3,6-dihydro-2,6-dioxo-4-trifluoromethyl-1 (2H)-pyrimidine] | 157 | – | – | – | – | – | – | – | – | –
CS(=O)(=O)Nc1cc(-n2c(=O)cc(C(F)(F)F)[nH]c2=O)c(F)cc1C(F)(F)F [Example 4] | 227 | 80 | 100 | 100 | 100 | 100 | 100 | 100 | 100 | 95
Cn1c(C(F)(F)F)cc(=O)n(-c2cc(NS(C)(=O)=O)c(C(F)(F)F)cc2F)c1=O [Example 5] | 163 | 80 | 100 | 100 | 100 | 100 | 100 | 100 | 100 | 95
